The values that follow come from patent US20150175599A1, “FAAH Inhibitors” (Ironwood Pharmaceuticals, Inc., priority 2010, published 2015).

In the assay the target is T1, FAAH (Rattus norvegicus, UniProt P97612).
T1 construct: For the assay of FAAH activity in rat brain membrane (RBM) homogenates; tissue Charles River (animals); host or cells: rat whole brain, membrane fraction
T1 sequence (P97612 1-579): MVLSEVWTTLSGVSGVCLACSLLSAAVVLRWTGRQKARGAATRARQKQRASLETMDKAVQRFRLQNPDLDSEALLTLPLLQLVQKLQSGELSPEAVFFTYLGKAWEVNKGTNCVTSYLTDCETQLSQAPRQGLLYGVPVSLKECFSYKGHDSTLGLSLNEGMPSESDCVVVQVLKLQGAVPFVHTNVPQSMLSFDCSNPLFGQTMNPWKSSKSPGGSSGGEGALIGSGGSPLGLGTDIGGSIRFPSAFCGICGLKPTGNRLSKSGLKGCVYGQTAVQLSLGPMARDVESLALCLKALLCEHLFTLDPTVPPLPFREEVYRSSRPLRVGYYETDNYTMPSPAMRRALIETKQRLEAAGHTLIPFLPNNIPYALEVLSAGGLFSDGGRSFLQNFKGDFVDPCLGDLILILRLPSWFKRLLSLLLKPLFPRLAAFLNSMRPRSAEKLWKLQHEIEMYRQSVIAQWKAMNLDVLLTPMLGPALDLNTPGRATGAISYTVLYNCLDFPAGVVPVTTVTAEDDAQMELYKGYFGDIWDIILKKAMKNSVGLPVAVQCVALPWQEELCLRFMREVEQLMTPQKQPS
Nature of the assay: FAAH inhibition, rat brain membrane homogenate assay. Type of assay: biochemical. The settings on record: rat brain homogenate; average activity; read-out: Rat Brain Extract FAAH IC50. In short, it runs like this: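 Membranes from female CD rat brain (Tris pH 7.4/EDTA/MgCl2 resuspension), 7 μg protein, incubated 10 min at 37 °C with [3H]anandamide plus […] unlabelled AEA, 1 mg/mL fatty acid-free BSA, Tris-HCl pH 6.5, 1 mM EDTA, 1% DMSO. [3H]ethanolamine separated by chloroform/methanol extraction or charcoal filtration, scintillation-counted; IC50 derived.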

As to `COc1ccc2c(c1)c(C(=O)C(=O)Nc1cc(OC)ncc1F)c(C)n2Cc1ccc(Cl)cc1` [Compound 54, 2-(1-(4-chlorobenzyl)-5-methoxy-2-methyl-1H-indol-3-yl)-N-(5-fluoro-2-methoxypyridin-4-yl)-2-oxoacetamide], the 50% inhibitory concentration (IC50) (usually the concentration that gives 50% inhibition) was less than 100 nM.
The same measure for `COc1cc(NC(=O)C(=O)c2c(C)n(Cc3ccc(Cl)cc3)c3cccc(OC)c23)ccn1` [Compound 45, 2-(1-(4-chlorobenzyl)-4-methoxy-2-methyl-1H-indol-3-yl)-N-(2-methoxypyridin-4-yl)-2-oxoacetamide]: less than 100 nM.
The same measure for `COc1cc(NC(=O)C(=O)c2c(C)n(Cc3ccc(Cl)cn3)c3ccc(N)cc23)ccn1` [Compound 65, 2-(5-amino-1-((5-chloropyridin-2-yl)methyl)-2-methyl-1H-indol-3-yl)-N-(2-methoxypyridin-4-yl)-2-oxoacetamide]: less than 100 nM.
In the case of `CNCc1ccc2c(c1)c(C(=O)C(=O)Nc1ccnc(OC)c1)c(C)n2Cc1ccc(Cl)cc1` [Compound 25, 2-(1-(4-chlorobenzyl)-2-methyl-5-((methylamino)methyl)-1H-indol-3-yl)-N-(2-methoxypyridin-4-yl)-2-oxoacetamide], the half-maximal inhibitory concentration (IC50) lay within 1000 to 10000 nM.
The same measure for `COc1ccc2c(c1)c(C(=O)C(=O)Nc1ccnc(OC)c1)c(C)n2Cc1ccc(S(C)(=O)=O)cc1` [Compound 39, 2-(5-methoxy-2-methyl-1-(4-(methylsulfonyl)benzyl)-1H-indol-3-yl)-N-(2-methoxypyridin-4-yl)-2-oxoacetamide]: 1000 to 10000 nM; for `COc1cc(NC(=O)C(=O)c2c(C)n(Cc3ccc(Cl)cc3)c3cc(C)c(OC)cc23)ccn1` [Compound 74, 2-(1-(4-chlorobenzyl)-5-methoxy-2,6-dimethyl-1H-indol-3-yl)-N-(2-methoxypyridin-4-yl)-2-oxoacetamide]: less than 100 nM; for `COc1cc(NC(=O)C(=O)c2c(C)n(Cc3ccc(Cl)cc3)c3cc(OC)c(OC)cc23)ccn1` [Compound 44, 2-(1-(4-chlorobenzyl)-5,6-dimethoxy-2-methyl-1H-indol-3-yl)-N-(2-methoxypyridin-4-yl)-2-oxoacetamide]: less than 100 nM.
The same measure for `COc1ccc2c(c1)c(C(=O)C(=O)Nc1ccnc(OC)n1)c(C)n2Cc1ccc(Cl)cc1` [Compound 46, 2-(1-(4-chlorobenzyl)-5-methoxy-2-methyl-1H-indol-3-yl)-N-(2-methoxypyrimidin-4-yl)-2-oxoacetamide]: less than 100 nM; for `COc1cc(NC(=O)C(=O)c2c(C)n(Cc3ncc(F)cc3F)c3cc(F)c(OC)cc23)ccn1` [Compound 101, 2-(1-((3,5-difluoropyridin-2-yl)methyl)-6-fluoro-5-methoxy-2-methyl-1H-indol-3-yl)-N-(2-methoxypyridin-4-yl)-2-oxoacetamide]: less than 100 nM.
`COc1ccc2c(C(=O)C(=O)Nc3ccnc(OC)c3)c(C)n(Cc3ccc(Cl)cc3)c2c1` [Compound 48, 2-(1-(4-chlorobenzyl)-6-methoxy-2-methyl-1H-indol-3-yl)-N-(2-methoxypyridin-4-yl)-2-oxoacetamide]: the 50% inhibitory concentration (IC50) was less than 100 nM.
Next, `COc1cc(NC(=O)C(=O)c2c(C)n(Cc3ccc(Cl)cc3)c3ccc(O)cc23)ccn1` [Compound 2, 2-(1-(4-chlorobenzyl)-5-hydroxy-2-methyl-1H-indol-3-yl)-N-(2-methoxypyridin-4-yl)-2-oxoacetamide]: less than 100 nM; `COc1cc(NC(=O)C(=O)c2c(C)n(Cc3ccc(Cl)cc3)c3ccc(OC)c(F)c23)ccn1` [Compound 59, 2-(1-(4-chlorobenzyl)-4-fluoro-5-methoxy-2-methyl-1H-indol-3-yl)-N-(2-methoxypyridin-4-yl)-2-oxoacetamide]: less than 100 nM; `COc1cnc2c(c1)c(C(=O)C(=O)Nc1ccnc(OC)c1)c(C)n2Cc1ncc(Cl)cc1Cl` [Compound 29, 2-(1-((3,5-dichloropyridin-2-yl)methyl)-5-methoxy-2-methyl-1H-pyrrolo[2,3-b]pyridin-3-yl)-N-(2-methoxypyridin-4-yl)-2-oxoacetamide]: less than 100 nM.
Next, `COc1cc(NC(=O)C(=O)c2c(C)n(Cc3ccc(Cl)cc3)c3ccc(OC(C)=O)cc23)ccn1` [Compound 1, 1-(4-chlorobenzyl)-3-(2-(2-methoxypyridin-4-ylamino)-2-oxoacetyl)-2-methyl-1H-indol-5-yl acetate]: less than 100 nM; `COc1ccc2c(c1)c(C(=O)C(=O)Nc1ccnc(OC)c1)c(C)n2Cc1cnc(Cl)cn1` [Compound 12, 2-(1-((5-chloropyrazin-2-yl)methyl)-5-methoxy-2-methyl-1H-indol-3-yl)-N-(2-methoxypyridin-4-yl)-2-oxoacetamide]: less than 100 nM; `COc1cc(NC(=O)C(=O)c2c(C)n(Cc3ccc(Cl)cc3)c3ccc(OC)c(Cl)c23)ccn1` [Compound 58, 2-(4-chloro-1-(4-chlorobenzyl)-5-methoxy-2-methyl-1H-indol-3-yl)-N-(2-methoxypyridin-4-yl)-2-oxoacetamide]: 100 to 1000 nM.
Take `COc1cc(NC(=O)C(=O)c2c(C)n(Cc3ccc(Cl)cc3)c3ccc(N(C)C)cc23)ccn1` [Compound 17, 2-(1-(4-chlorobenzyl)-5-(dimethylamino)-2-methyl-1H-indol-3-yl)-N-(2-methoxypyridin-4-yl)-2-oxoacetamide]: the IC50 was less than 100 nM.
The same measure for `CNc1ccc2c(c1)c(C(=O)C(=O)Nc1ccnc(OC)c1)c(C)n2Cc1ccc(Cl)cc1` [Compound 9, 2-(1-(4-chlorobenzyl)-2-methyl-5-(methylamino)-1H-indol-3-yl)-N-(2-methoxypyridin-4-yl)-2-oxoacetamide]: less than 100 nM.
